Assay results from patent US9265741B2, “Molecules to perfect HbA1c levels” (Neville Pharmaceutical, Inc., priority 2011, dated 2016).

How the values were obtained:
[1] = Safety test in human volunteers; type: in vivo; conditions: clinically prescribed doses
From the text: Methyl pyruvate performs as a lipophilic antisense-like bullet that penetrates cell membranes, mitochondrial membranes and nuclear membranes with its active and passive delivery of energy via protons, adenosine triphosphate manufacture (ATP) and methylation. This energy delivering metabolic bullet upregulates all cytosolic and nuclear capabilities. It can even negate messenger RNA (mRNA) expression. Now, because of instant protons and pyruvate delivered, there is immediately empowered glycolysis and/or CAC production of ATP and the cell functions with more efficient performance. Through this newly available energy, gene silencing can be reversed, repairs completed, apoptosis performed, and the cell is upgraded and/or divides (cell partitioning) into a new and improved cell having shed its prior oxidative cellular/genetic debris. In DM this means improved Glut4 networking, improved insulin sensitivity, increased intra and intercellular networking and increased superoxide dismutase (SOD) production. Further, due to MP, many nutrients and complicit molecules including peroxisome proliferator-activator receptor (Ppars) will now function more effectively and efficiently, i.e. as infused and increased cellular energy can now affect niacinamide (B3) and nicotinamide adenine dinucleotide (NAD) at an intracellular level that enables and protects beta cell function. […]

[2] = test system: HbA1c; experiment: Twelve patients with DM took MP for three months; HbA1c measured; type: in vivo, human
From the text: Twelve patients with DM, including a juvenile diabetic, took two (2) grams of MP in water two (2) times per day for three (3) months without any other lifestyle change. The average decrease of HbA1c was one percent (1%). (The group average HbA1c diminished from 7.5% to 6.5% during the course of three (3) months of treatment.)

[3] = test system: pancreatic rat islet cells; experiment: MP instilled into pancreatic rat islet cells; insulin manufacture; type: cell-based; conditions: pancreatic rat islet cells (animal model), several studies
From the text: The methyl pyruvate molecule and certain of these molecular analogues are lipophilic antisense-like permeants, each of which holds onto its own membrane penetrability as well as acting collectively to produce a timed release delivery within the inner mitochondria. The combinational synergy can be different than each effect individually. […] This up regulation is key for enhanced utilization and regulation of glucose transport. MP closes potassium channels and opens calcium channels (via aquaporin generation) allowing a more favorable cellular milieu (increases cytosolic pH) that increases CAC productivity via our delivered MP (as pyruvate), as well as the now utilizable glucose. The use of MP and/or EP as energy molecules allows gene silenced and disabled near-apoptotic cells to proceed logically/genomically to a more idealized homeostatic state for the organism. The invention represents a method for genomic self-regulation of HbA1c.
MP instilled into pancreatic rat islet cells enable upregulation of insulin manufacture six-fold in several studies. The measured Jurkat current is countered and neutralized by MP's proton impedance enhancing its later provocation in increased insulin manufacture.

Compound: CCOC(=O)C(C)=O [EP, ethyl pyruvate]
- safety in human volunteers [1]: safe

Compound: COC(=O)C(C)=O [MP, methyl pyruvate]
- average decrease of HbA1c ([2]; 2 grams of MP in water 2 times per day for 3 months, no other lifestyle change): 1%
- group average HbA1c after treatment ([2]; after 3 months of 2 grams of MP in water 2 times per day): 6.5%
- group average HbA1c before treatment ([2]; start of treatment (baseline)): 7.5%
- safety in human volunteers [1]: safe
- upregulation of insulin manufacture [3]: six-fold
